Test results reported in the NIST ThermoML archive (doi:10.1021/je800101v).
± gives the expanded uncertainty stated by the source.

Test: xn = mol fraction of the nth substance listed
Details: Ring tensiometer

CCCCCCCO [heptan-1-ol] + OCCO
surface tension liquid-gas [mN/m]
Details	298.15 K	303.15 K	308.15 K	313.15 K	318.15 K
x1 = 0.0559	29.24 ± 0.45	29.16 ± 0.45	28.96 ± 0.45	28.78 ± 0.45	28.64 ± 0.45
x1 = 0.1059	27.73 ± 0.44	28.02 ± 0.44	27.88 ± 0.44	27.71 ± 0.44	27.55 ± 0.44
x1 = 0.1508	27.18 ± 0.43	27.66 ± 0.44	27.55 ± 0.44	27.42 ± 0.44	27.28 ± 0.43
x1 = 0.1914	27.05 ± 0.43	27.54 ± 0.44	27.21 ± 0.43	27.06 ± 0.43	26.91 ± 0.43
x1 = 0.2512	26.93 ± 0.43	27.36 ± 0.43	26.98 ± 0.43	26.81 ± 0.43	26.67 ± 0.43
x1 = 0.3027	26.78 ± 0.43	27.2 ± 0.43	26.84 ± 0.43	26.71 ± 0.43	26.57 ± 0.43
x1 = 0.3559	26.67 ± 0.43	27.07 ± 0.43	26.69 ± 0.43	26.53 ± 0.43	26.35 ± 0.42
x1 = 0.4085	26.57 ± 0.43	26.89 ± 0.43	26.65 ± 0.43	26.42 ± 0.43	26.28 ± 0.42
x1 = 0.4532	26.41 ± 0.43	26.77 ± 0.43	26.57 ± 0.43	26.32 ± 0.42	26.16 ± 0.42
x1 = 0.4966	26.32 ± 0.42	26.67 ± 0.43	26.42 ± 0.43	26.23 ± 0.42	26.07 ± 0.42
x1 = 0.5502	26.25 ± 0.42	26.6 ± 0.43	26.24 ± 0.42	26.07 ± 0.42	25.91 ± 0.42
x1 = 0.5999	26.17 ± 0.42	26.48 ± 0.43	26.12 ± 0.42	25.92 ± 0.42	25.78 ± 0.42
x1 = 0.6369	26 ± 0.42	26.39 ± 0.42	26.09 ± 0.42	25.83 ± 0.42	25.65 ± 0.42
x1 = 0.6928	26.08 ± 0.42	26.31 ± 0.42	26.01 ± 0.42	25.68 ± 0.42	25.52 ± 0.42
x1 = 0.7246	26.01 ± 0.42	26.25 ± 0.42	25.91 ± 0.42	25.62 ± 0.42	25.48 ± 0.42
x1 = 0.7978	25.92 ± 0.42	26.18 ± 0.42	25.85 ± 0.42	25.52 ± 0.42	25.37 ± 0.41
x1 = 0.8403	25.83 ± 0.42	26.12 ± 0.42	25.78 ± 0.42	25.51 ± 0.42	25.31 ± 0.41
x1 = 0.8875	25.71 ± 0.42	26.07 ± 0.42	25.68 ± 0.42	25.45 ± 0.42	25.21 ± 0.41
x1 = 0.9404	25.62 ± 0.42	26.02 ± 0.42	25.62 ± 0.42	25.45 ± 0.42	25.14 ± 0.41

CCCCCO [pentan-1-ol] + OCCO
surface tension liquid-gas [mN/m]
Details	298.15 K	303.15 K	308.15 K	313.15 K	318.15 K
x1 = 0.0488	35.01 ± 0.52	34.4 ± 0.51	33.65 ± 0.5	33.18 ± 0.5	32.85 ± 0.49
x1 = 0.0931	32.1 ± 0.49	30.89 ± 0.47	30.71 ± 0.47	30.51 ± 0.47	30.37 ± 0.47
x1 = 0.1523	29.93 ± 0.46	29.14 ± 0.45	29.25 ± 0.45	29.05 ± 0.45	28.87 ± 0.45
x1 = 0.2043	29.26 ± 0.46	28.56 ± 0.45	28.41 ± 0.45	28.27 ± 0.44	28.09 ± 0.44
x1 = 0.2502	28.35 ± 0.45	27.94 ± 0.44	27.81 ± 0.44	27.67 ± 0.44	27.51 ± 0.44
x1 = 0.2912	28.04 ± 0.44	27.65 ± 0.44	27.51 ± 0.44	27.35 ± 0.43	27.17 ± 0.43
x1 = 0.3503	27.01 ± 0.43	27.05 ± 0.43	26.91 ± 0.43	26.8 ± 0.43	26.68 ± 0.43
x1 = 0.4094	27.39 ± 0.44	26.62 ± 0.43	26.48 ± 0.43	26.31 ± 0.42	26.18 ± 0.42
x1 = 0.4586	26.71 ± 0.43	26.19 ± 0.42	25.98 ± 0.42	25.82 ± 0.42	25.69 ± 0.42
x1 = 0.5003	26.75 ± 0.43	25.77 ± 0.42	25.61 ± 0.42	25.43 ± 0.41	25.27 ± 0.41
x1 = 0.552	26.53 ± 0.43	25.39 ± 0.42	25.21 ± 0.41	25.02 ± 0.41	24.91 ± 0.41
x1 = 0.5982	25.71 ± 0.42	25.15 ± 0.41	24.98 ± 0.41	24.81 ± 0.41	24.68 ± 0.41
x1 = 0.6425	26.32 ± 0.43	24.96 ± 0.41	24.79 ± 0.41	24.67 ± 0.41	24.53 ± 0.41
x1 = 0.6979	26.21 ± 0.43	24.75 ± 0.41	24.57 ± 0.41	24.41 ± 0.4	24.25 ± 0.4
x1 = 0.7197	26.12 ± 0.43	24.63 ± 0.41	24.51 ± 0.41	24.37 ± 0.4	24.19 ± 0.4
x1 = 0.7739	25.98 ± 0.42	24.35 ± 0.41	24.18 ± 0.4	23.98 ± 0.4	23.82 ± 0.4
x1 = 0.837	24.89 ± 0.41	24.23 ± 0.4	24.15 ± 0.4	23.92 ± 0.4	23.78 ± 0.4
x1 = 0.9113	25.45 ± 0.42	24.13 ± 0.4	24 ± 0.4	23.81 ± 0.4	23.65 ± 0.4
x1 = 0.9536	25.25 ± 0.42	24.02 ± 0.4	23.89 ± 0.4	23.75 ± 0.4	23.61 ± 0.4
